Assay results from ChEMBL document CHEMBL4665635, “Design and synthesis of various quinizarin derivatives as potential anticancer agents in acute T lymphoblastic leukemia” (Bioorg Med Chem, 2019).
Where a name gives a salt, the structure may show the parent alone. The source made the active and inactive calls. The calls are words filed in the database; no cut-off is given here.

Experiments:
K562 = assay: Cytotoxicity against human K562 cells assessed as inhibition of cell proliferation after 48 hrs by MTT assay; assay type: functional, cell-based; details: K562, 48 h
HL-60 = assay: Cytotoxicity against human HL60 cells assessed as inhibition of cell proliferation after 48 hrs by MTT assay; assay type: functional, cell-based; details: HL-60, 48 h
HEK293 [1] = assay: Cytotoxicity against human HEK293 cells assessed as inhibition of cell proliferation after 48 hrs by MTT assay; assay type: cell-based; details: HEK293, 48 h
Jurkat [2] = assay: Induction of apoptosis in human Jurkat cells assessed as Notch1 degradation at 2 to 4 uM after 24 hrs by Western blot analysis; assay type: functional, cell-based; details: dose microM 2-4, time 24.0 hrs
NB-4 = assay: Cytotoxicity against human NB4 cells assessed as inhibition of cell proliferation after 48 hrs by MTT assay; assay type: functional, cell-based; details: NB-4, 48 h
CA46 = assay: Cytotoxicity against human CA46 cells assessed as inhibition of cell proliferation after 48 hrs by MTT assay; assay type: functional, cell-based; details: CA46, 48 h
NALM-6 = assay: Cytotoxicity against human NALM6 cells assessed as inhibition of cell proliferation after 48 hrs by MTT assay; assay type: functional, cell-based; details: NALM-6, 48 h
MOLT-4 [3] = assay: Cytotoxicity against human MOLT4 cells assessed as inhibition of cell proliferation after 48 hrs by MTT assay; assay type: functional, cell-based; details: MOLT-4, 48 h
Jurkat [4] = assay: Cytotoxicity against human Jurkat cells assessed as inhibition of cell proliferation after 48 hrs by MTT assay; assay type: functional, cell-based
MOLT-4 [5] = assay: Cell cycle arrest in human MOLT-4 cells assessed as increase in cell population at G0/G1 phase at 2 to 4 uM after 24 hrs by propidium iodide/RNase staining based flow cytometric analysis; assay type: functional; details: dose microM 2-4, time 24.0 hrs
Jurkat [6] = assay: Cell cycle arrest in human Jurkat cells assessed as increase in cell population at G0/G1 phase at 2 to 4 uM after 24 hrs by propidium iodide/RNase staining based flow cytometric analysis; assay type: functional; details: dose microM 2-4, time 24.0 hrs
MOLT-4 [7] = assay: Induction of apoptosis in human MOLT-4 cells assessed as Notch1 degradation at 2 to 4 uM after 24 hrs by Western blot analysis; assay type: functional, cell-based; details: dose microM 2-4, time 24.0 hrs
MOLT-4 [8] = assay: Cell cycle arrest in human MOLT-4 cells assessed as decrease in cell population at S phase at 2 to 4 uM after 24 hrs by propidium iodide/RNase staining based flow cytometric analysis; assay type: functional; details: dose microM 2-4, time 24.0 hrs
Jurkat [9] = assay: Cell cycle arrest in human Jurkat cells assessed as decrease in cell population at S phase at 2 to 4 uM after 24 hrs by propidium iodide/RNase staining based flow cytometric analysis; assay type: functional; details: dose microM 2-4, time 24.0 hrs
MOLT-4 [10] = assay: Induction of apoptosis in human MOLT-4 cells assessed as total apoptotic cells at 2 uM measured after 24 hrs by Annexin V-APC/7-AAD staining based flow cytometric analysis relative to control; assay type: functional
MOLT-4 [11] = assay: Induction of apoptosis in human MOLT-4 cells assessed as total apoptotic cells at 4 uM measured after 24 hrs by Annexin V-APC/7-AAD staining based flow cytometric analysis relative to control; assay type: functional
Jurkat [12] = assay: Induction of apoptosis in human Jurkat cells assessed as total apoptotic cells at 2 uM measured after 24 hrs by Annexin V-APC/7-AAD staining based flow cytometric analysis relative to control; assay type: functional
Jurkat [13] = assay: Induction of apoptosis in human Jurkat cells assessed as total apoptotic cells at 4 uM measured after 24 hrs by Annexin V-APC/7-AAD staining based flow cytometric analysis relative to control; assay type: functional
HEK293 [14] = assay: Induction of ROS generation in HEK293 cells at 1 uM incubated for 12 hrs by flow cytometric analysis relative to control; assay type: cell-based; details: human, hek293, 12 h
HEK293 [15] = assay: Induction of ROS generation in HEK293 cells at 2 uM incubated for 12 hrs by flow cytometric analysis relative to control; assay type: cell-based; details: human, hek293, 12 h
MOLT-4 [16] = assay: Induction of ROS generation in human MOLT-4 cells at 1 uM incubated for 12 hrs by flow cytometric analysis relative to control; assay type: functional
MOLT-4 [17] = assay: Induction of ROS generation in human MOLT-4 cells at 2 uM incubated for 12 hrs by flow cytometric analysis relative to control; assay type: functional
Jurkat [18] = assay: Induction of ROS generation in human Jurkat cells at 1 uM incubated for 12 hrs by flow cytometric analysis relative to control; assay type: functional
Jurkat [19] = assay: Induction of ROS generation in human Jurkat cells at 2 uM incubated for 12 hrs by flow cytometric analysis relative to control; assay type: functional
MOLT-4 [20] = assay: Induction of apoptosis in human MOLT-4 cells assessed as activation of PARP cleavage at 2 to 4 uM after 24 hrs by western blot analysis; assay type: functional, cell-based; details: dose microM 2-4, time 24.0 hrs
MOLT-4 [21] = assay: Induction of apoptosis in human MOLT-4 cells assessed as caspase 9 activation at 2 to 4 uM incubated for 24 hrs by Western blot analysis; assay type: functional, cell-based; details: dose microM 2-4, time 24.0 hrs
Jurkat [22] = assay: Induction of apoptosis in human Jurkat cells assessed as caspase 9 activation at 2 to 4 uM incubated for 24 hrs by Western blot analysis; assay type: functional, cell-based; details: dose microM 2-4, time 24.0 hrs
MOLT-4 [23] = assay: Induction of apoptosis in human MOLT-4 cells assessed as caspase 3 activation at 2 to 4 uM incubated for 24 hrs by Western blot analysis; assay type: functional, cell-based; details: dose microM 2-4, time 24.0 hrs
Jurkat [24] = assay: Induction of apoptosis in human Jurkat cells assessed as caspase 3 activation at 2 to 4 uM incubated for 24 hrs by Western blot analysis; assay type: functional, cell-based; details: dose microM 2-4, time 24.0 hrs
Jurkat [25] = assay: Induction of apoptosis in human Jurkat cells assessed as activation of PARP cleavage at 2 to 4 uM after 24 hrs by western blot analysis; assay type: functional, cell-based; details: dose microM 2-4, time 24.0 hrs
MOLT-4 [26] = assay: Induction of apoptosis in human MOLT-4 cells assessed as increase in cleaved caspase-3 levels at 4 uM after 24 hrs by Alexafluor-488 goat anti-rabbitIgG staining based flow cytometric analysis relative to control; assay type: functional
Jurkat [27] = assay: Induction of apoptosis in human Jurkat cells assessed as increase in cleaved caspase-3 levels at 4 uM after 24 hrs by Alexafluor-488 goat anti-rabbitIgG staining based flow cytometric analysis relative to control; assay type: functional
MOLT-4 [28] = assay: Induction of apoptosis in human MOLT-4 cells assessed as decrease in Bcl-2 protein expression at 2 to 4 uM after 24 hrs by Western blot analysis; assay type: functional, cell-based; details: dose microM 2-4, time 24.0 hrs
Jurkat [29] = assay: Induction of apoptosis in human Jurkat cells assessed as decrease in Bcl-2 protein expression at 2 to 4 uM after 24 hrs by Western blot analysis; assay type: functional, cell-based; details: dose microM 2-4, time 24.0 hrs
MOLT-4 [30] = assay: Induction of apoptosis in human MOLT-4 cells assessed as c-myc degradation at 2 to 4 uM after 24 hrs by Western blot analysis; assay type: functional, cell-based; details: dose microM 2-4, time 24.0 hrs
Jurkat [31] = assay: Induction of apoptosis in human Jurkat cells assessed as c-myc degradation at 2 to 4 uM after 24 hrs by Western blot analysis; assay type: functional, cell-based; details: dose microM 2-4, time 24.0 hrs
[32] = Solubility in water by spectrophotometry; assay type: physicochemical

Structure (SMILES): CCCCCCCC[P+](CCCCCCCC)(CCCCCCCC)Cc1ccc(COc2ccc(OCc3ccc(CSC(=N)N)cc3)c3c2C(=O)c2ccccc2C3=O)cc1
- IC50 (K562): 8040 nM
- IC50 (HL-60): 5160 nM
- IC50 (HEK293 [1]): 6660 nM

Structure (SMILES): COc1cccc2c1C(=O)c1c(O)c3c(c(O)c1C2=O)C[C@@](O)(C(=O)CO)C[C@@H]3O[C@H]1C[C@H](N)[C@H](O)[C@H](C)O1 [DOXORUBICIN HYDROCHLORIDE]
- IC50 (K562): 630 nM
- IC50 (HL-60): 140 nM
- IC50 (HEK293 [1]): 370 nM

Structure (SMILES): CCCCCCCC[N+](C)(CCCCCCCC)Cc1ccc(COc2ccc(OCc3ccc(CBr)cc3)c3c2C(=O)c2ccccc2C3=O)cc1.[Br-]
- Activity (Jurkat [2]): Dose-dependent effect
- IC50 (K562): 2310 nM
- IC50 (HL-60): 1400 nM
- IC50 (HEK293 [1]): 2440 nM
- IC50 (NB-4): 2400 nM
- IC50 (CA46): 3510 nM
- IC50 (NALM-6): 1240 nM
- IC50 (MOLT-4 [3]): 2610 nM
- IC50 (Jurkat [4]): 2800 nM
- Activity (MOLT-4 [5]): Active
- Activity (Jurkat [6]): Active
- Activity (MOLT-4 [7]): Dose-dependent effect
- Activity (MOLT-4 [8]): Active
- Activity (Jurkat [9]): Active
- Activity (MOLT-4 [10]): 22.76%
- Activity (MOLT-4 [11]): 39.67%
- Activity (Jurkat [12]): 25.57%
- Activity (Jurkat [13]): 48.96%
- Activity (HEK293 [14]): 2.78%
- Activity (HEK293 [15]): 62.23%
- Activity (MOLT-4 [16]): 22.2%
- Activity (MOLT-4 [17]): 73.97%
- Activity (Jurkat [18]): 18.63%
- Activity (Jurkat [19]): 38.1%
- Activity (MOLT-4 [20]): Active
- Activity (MOLT-4 [21]): Active
- Activity (Jurkat [22]): Active
- Activity (MOLT-4 [23]): Active
- Activity (Jurkat [24]): Active
- Activity (Jurkat [25]): Active
- Activity (MOLT-4 [26]): 33%
- Activity (Jurkat [27]): 43.4%
- Activity (MOLT-4 [28]): Dose-dependent effect
- Activity (Jurkat [29]): Dose-dependent effect
- Activity (MOLT-4 [30]): Dose-dependent effect
- Activity (Jurkat [31]): Dose-dependent effect
- solubility [32]: < 10 µg/mL

Structure (SMILES): CCCCCCCC[P+](CCCCCCCC)(CCCCCCCC)Cc1ccc(COc2ccc(OCc3ccc(CBr)cc3)c3c2C(=O)c2ccccc2C3=O)cc1
- IC50 (K562): 1240 nM
- IC50 (HL-60): 900 nM
- IC50 (HEK293 [1]): 2170 nM

Structure (SMILES): CCCCCCCC[N+](C)(CCCCCCCC)Cc1cc(O)c2c(c1)C(=O)c1cccc(O)c1C2=O
- IC50 (K562): 2780 nM
- IC50 (HL-60): 1110 nM
- IC50 (HEK293 [1]): 2200 nM

Structure (SMILES): CCCCCCCC[N+](C)(CCCCCCCC)Cc1ccc(COc2ccc(OCc3ccc(C[N+](C)(CCCCCCCC)CCCCCCCC)cc3)c3c2C(=O)c2ccccc2C3=O)cc1
- IC50 (K562): 6780 nM
- IC50 (HL-60): 3490 nM
- IC50 (HEK293 [1]): 2990 nM

Structure (SMILES): CCCCCCCC[N+](C)(CCCCCCCC)Cc1cc(O)c2c(c1)Cc1cccc(O)c1C2=O
- IC50 (K562): > 40000 nM
- IC50 (HL-60): > 40000 nM
- IC50 (HEK293 [1]): > 40000 nM

Structure (SMILES): O=C1c2ccccc2C(=O)c2c(OCc3ccc(CBr)cc3)ccc(OCc3ccc(CBr)cc3)c21
- IC50 (K562): > 40000 nM
- IC50 (HL-60): > 40000 nM
- IC50 (HEK293 [1]): > 40000 nM

Structure (SMILES): CCCCCCCC[N+](C)(CCCCCCCC)Cc1ccc(COc2ccc(OCc3ccc(C[N+](CCO)(CCO)CCO)cc3)c3c2C(=O)c2ccccc2C3=O)cc1.[Br-].[Br-]
- IC50 (K562): 10900 nM
- IC50 (HL-60): 7890 nM
- IC50 (HEK293 [1]): 9430 nM
- solubility [32]: 28200 µg/mL

Structure (SMILES): Br.Br.N=C(N)SCc1ccc(COc2ccc(OCc3ccc(CSC(=N)N)cc3)c3c2C(=O)c2ccccc2C3=O)cc1
- IC50 (K562): 1810 nM
- IC50 (HL-60): 3350 nM
- IC50 (HEK293 [1]): 3190 nM
- solubility [32]: 59.3 µg/mL
